Reference: patent US20080234262A1 (Wyeth, priority 2007, published 2008)

How the values were obtained:
prostate line LNCap = experiment: In vitro cell culture growth assay (MTS), LNCap; format: cell-based, human; conditions: Homo sapiens, LNCaP, 72 h, LNCap cells, three days after drug treatment
breast line MDA468 = experiment: In vitro cell culture growth assay (MTS), MDA468; format: cell-based, human; conditions: Homo sapiens, 72 h, MDA468 cells, three days after drug treatment
Procedure, shortened: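 MDA468 or LNCap cells received inhibitors one day after plating and were grown for three days. Viable cell density read by MTS conversion, absorbance 490 nm, expressed as percent of control growth versus vehicle-treated cells on the same plate.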

Row | Structure (SMILES) | IC50 (prostate line LNCap) [µM] | IC50 (breast line MDA468) [µM]
1 | Oc1ccc(-c2nc(N3CCOCC3)c3cnn(C4CCN(Cc5ccccc5)CC4)c3n2)cc1 [Compound 232, 4-[1-(1-benzylpiperidin-4-yl)-4-morpholin-4-yl-1H-pyrazolo[3,4-d]pyrimidin-6-yl]phenol] | 1.4 | 4
2 | Oc1ccc(-c2nc(N3CCOCC3)c3cnn(C4CCN(Cc5ccccc5)CC4)c3n2)cc1 [Compound 486, 4-[1-(1-benzylpiperidin-4-yl)-4-morpholin-4-yl-1H-pyrazolo[3,4-d]pyrimidin-6-yl]phenol] | 1.4 | 4
3 | Nc1ccc(-c2nc(N3CCOCC3)c3cnn(-c4ccccc4)c3n2)nc1 [Compound 438, 6-(4-morpholin-4-yl-1-phenyl-1H-pyrazolo[3,4-d]pyrimidin-6-yl)pyridin-3-amine] | 7 | 60
4 | O=C(c1ccccc1)N1CCC(n2ncc3c(N4CCOCC4)nc(-c4cccc(O)c4)nc32)CC1 [Compound 25, 3-[1-(1-benzoylpiperidin-4-yl)-4-morpholin-4-yl-1H-pyrazolo[3,4-d]pyrimidin-6-yl]phenol] | 0.14 | 0.7
5 | NCC(=O)Nc1ccc(-c2nc(N3CCOCC3)c3cnn(-c4ccccc4)c3n2)cc1 [Compound 136] | 1 | 0.4
6 | CC(=O)Nc1cccc(-c2nc(N3CCOCC3)c3cnn(C4CCN(Cc5ccccc5)CC4)c3n2)c1 [Compound 78] | 8 | 12
7 | CC(=O)Nc1ccc(-c2nc(N3CCOCC3)c3cnn(-c4ccccc4)c3n2)cc1 [Compound 108, N-[4-(4-morpholin-4-yl-1-phenyl-1H-pyrazolo[3,4-d]pyrimidin-6-yl)phenyl]acetamide] | 60 | 60
8 | c1cc2cc(-c3nc(N4CCOCC4)c4cnn([C@@H]5CCCNC5)c4n3)ccc2[nH]1 [Compound 168] | 3.4 | 10
9 | Nc1ccc(-c2nc(N3CCOCC3)c3cnn(-c4ccccc4)c3n2)cc1 [Compound 106, 4-(4-morpholin-4-yl-1-phenyl-1H-pyrazolo[3,4-d]pyrimidin-6-yl)aniline4-(4-morpholin-4-yl-1-phenyl-1H-pyrazolo[3,4-d]pyrimidin-6-yl)aniline] | 3 | 11
10 | Oc1cccc(-c2nc(N3CCOCC3)c3cnn(C4CCN(Cc5ccccc5)CC4)c3n2)c1 [Compound 8] | 0.22 | 1.9
11 | CNS(=O)(=O)Nc1ccc(-c2nc(N3CCOCC3)c3cnn(C4CCN(C(=O)OC(C)(C)C)CC4)c3n2)cc1 [Compound 951, tert-butyl 4-(6-{4-[(methylsulfamoyl)amino]phenyl}-4-morpholin-4-yl-1H-pyrazolo[3,4-d]pyrimidin-1-yl)piperidine-1-carboxylate] | 4 | 7.8
12 | c1cc2cc(-c3nc(N4CCOCC4)c4cnn([C@H]5CCCNC5)c4n3)ccc2[nH]1 [Compound 170, 6-(1H-indol-5-yl)-4-morpholin-4-yl-1-[(3S)-piperidin-3-yl]-1H-pyrazolo[3,4-d]pyrimidine] | 3.3 | 12
13 | Oc1ccc(-c2nc(N3CCOCC3)c3cnn(C4CCN(Cc5ccccc5)CC4)c3n2)cn1 [Compound 192] | 16 | 40
14 | CC(=O)Nc1ccc(-c2nc(N3CCOCC3)c3cnn(C4CCN(Cc5ccccc5)CC4)c3n2)cc1 [Example 80, N-{4-[1-(1-benzylpiperidin-4-yl)-4-morpholin-4-yl-1H-pyrazolo[3,4-d]pyrimidin-6-yl]phenyl}acetamide] | 0.45 | 2.3
15 | Nc1ccc(-c2nc(N3CCOCC3)c3cnn(C4CCN(Cc5ccccc5)CC4)c3n2)cc1 [Compound 79] | 4.5 | 10
16 | O=C(c1cccnc1)N1CCC(n2ncc3c(N4CCOCC4)nc(-c4cccc(O)c4)nc32)CC1 [Compound 24, 3-{4-morpholin-4-yl-1-[1-(pyridin-3-ylcarbonyl)piperidin-4-yl]-1H-pyrazolo[3,4-d]pyrimidin-6-yl}phenol] | 0.2 | 0.7
17 | Nc1ccc(-c2nc(N3CCOCC3)c3cnn(-c4ccccc4)c3n2)cn1 [Example 129, 5-(4-morpholin-4-yl-1-phenyl-1H-pyrazolo[3,4-d]pyrimidin-6-yl)pyridin-2-amine] | 0.41 | 1.3
18 | Nc1cccc(-c2nc(N3CCOCC3)c3cnn(C4CCN(Cc5ccccc5)CC4)c3n2)c1 [Example 60] | 2 | 5.5
19 | Nc1cccc(-c2nc(N3CCOCC3)c3cnn(-c4ccccc4)c3n2)n1 [Compound 439, 6-(4-morpholin-4-yl-1-phenyl-1H-pyrazolo[3,4-d]pyrimidin-6-yl)pyridin-2-amine] | 60 | 60
20 | CN(C)C(=O)c1ccc(-c2nc(N3CCOCC3)c3cnn(C4CCN(Cc5ccccc5)CC4)c3n2)cc1 [Example 71] | 10 | 13
21 | NCCC(=O)Nc1ccc(-c2nc(N3CCOCC3)c3cnn(-c4ccccc4)c3n2)cc1 [Compound 134] | 1.2 | 1.3
22 | COC(=O)Nc1ccc(-c2nc(N3CCOCC3)c3cnn(C4CCN(C(=O)OC)CC4)c3n2)cc1 [Compound 739, methyl 4-(6-{4-[(methoxycarbonyl)amino]phenyl}-4-morpholin-4-yl-1H-pyrazolo[3,4-d]pyrimidin-1-yl)piperidine-1-carboxylate] | 0.4 | 1.75
23 | COC(=O)N1CCC(n2ncc3c(N4CCOCC4)nc(-c4ccc(NC(=O)Nc5ccc(CO)cc5)cc4)nc32)CC1 [Compound 912, methyl 4-{6-[4-({[4-(hydroxymethyl)phenyl]carbamoyl}amino)phenyl]-4-morpholin-4-yl-1H-pyrazolo[3,4-d]pyrimidin-1-yl}piperidine-1-carboxylate] | < 0.0008 | < 0.0008
24 | CC(=O)N(C)c1ccc(-c2nc(N3CCOCC3)c3cnn(-c4ccccc4)c3n2)cc1 [Compound 149, N-methyl-N-[4-(4-morpholin-4-yl-1-phenyl-1H-pyrazolo[3,4-d]pyrimidin-6-yl)phenyl]acetamide] | 4.5 | 40
25 | COC(=O)Nc1ccc(-c2nc(N3CCOCC3)c3cnn(C4CCN(C(=O)c5ccc(C#N)cc5)CC4)c3n2)cc1 [Example 447, methyl (4-{1-[1-(4-cyanobenzoyl)piperidin-4-yl]-4-morpholin-4-yl-1H-pyrazolo[3,4-d]pyrimidin-6-yl}phenyl)carbamate] | 0.6 | 1.2
26 | COCCC(=O)Nc1ccc(-c2nc(N3CCOCC3)c3cnn(-c4ccccc4)c3n2)cc1 [Compound 138] | 4.9 | 6.5
27 | COCC(=O)N1CCC(n2ncc3c(N4CCOCC4)nc(-c4cccc(O)c4)nc32)CC1 [Example 30] | 0.5 | 1.4
28 | COC(=O)N1CCC(n2ncc3c(N4CCOCC4)nc(-c4ccc(NC(=O)Nc5ccncc5)cc4)nc32)CC1 [Compound 738, methyl 4-(4-morpholin-4-yl-6-{4-[(pyridin-4-ylcarbamoyl)amino]phenyl}-1H-pyrazolo[3,4-d]pyrimidin-1-yl)piperidine-1-carboxylate] | < 0.027 | < 0.027
29 | O=CNc1ccc(-c2nc(N3CCOCC3)c3cnn(C4CCN(Cc5ccccc5)CC4)c3n2)cc1 [Compound 231, N-{4-[1-(1-benzylpiperidin-4-yl)-4-morpholin-4-yl-1H-pyrazolo[3,4-d]pyrimidin-6-yl]phenyl}formamide] | 1.4 | 4.5
